Experimental data reported in ChEMBL document CHEMBL1155636, “Dihydrophenanthrenes from Spiranthes sinensis” (J Nat Prod, 2000).
The source made the active and inactive calls. The rule behind the calls is not given here.

What was measured:
Type in all cases: cell-based
MS-G2 [1] = test: Inhibition of Hepatitis B virus E antigen activity in human MS-G2 cells at 5 ug/mL
MS-G2 [2] = test: Inhibition of Hepatitis B virus E antigen activity in human MS-G2 cells at 10 ug/mL
[3] = Cytotoxicity against human MS-G2 cells at 20 ug/mL

With COc1cc(O)c2c(c1Cc1ccc(O)cc1)CCc1c-2ccc2c1C=CC(C)(C)O2 [SINENSOL D] the Activity (MS-G2 [1]) was “inactive”, the Activity (MS-G2 [2]) was “inactive” and the Activity [3] was “Active”.
For COc1cc(OC)c2c(c1Cc1ccc(O)cc1)CCc1cc(O)ccc1-2 [SINENSOL A], the Activity (MS-G2 [1]) was “inactive”, the Activity (MS-G2 [2]) was “inactive” and the Activity [3] was “Active”.
In the case of COc1cc(O)c2c(c1Cc1ccc(O)cc1)CCc1c-2ccc2c1CC(C(C)(C)O)O2 (stereo not drawn) [SINENSOL E], the Activity (MS-G2 [1]) is reported as “inactive”, the Activity (MS-G2 [2]) is reported as “inactive” and the Activity [3] is reported as “Active”.
With COc1cc(O)c(Cc2ccc(O)cc2)c2c1-c1ccc(O)c(CC=C(C)C)c1CC2 [SINENSOL C] the Activity (MS-G2 [1]) was “inactive”, the Activity (MS-G2 [2]) was “inactive” and the Activity [3] was “Active”.
For COc1cc(OC)c2c(c1Cc1ccc(O)cc1)CCc1c-2ccc(O)c1CC=C(C)C [SINENSOL B], the Activity (MS-G2 [1]) was “inactive”, the Activity (MS-G2 [2]) was “inactive” and the Activity [3] was “Active”.
For COc1cc(O)c2c(c1Cc1ccc(O)cc1)CCc1c-2cc(Cc2ccc(O)cc2)c(O)c1CC=C(C)C [SINENSOL F], the Activity (MS-G2 [1]) was “inactive”, the Activity (MS-G2 [2]) was “inactive” and the Activity [3] was “Active”.
